One assay has as its target T1, BplA (Ca 0589) (Clostridium acetobutylicum, UniProt Q97LH2).
T1 sequence (Q97LH2 1-270): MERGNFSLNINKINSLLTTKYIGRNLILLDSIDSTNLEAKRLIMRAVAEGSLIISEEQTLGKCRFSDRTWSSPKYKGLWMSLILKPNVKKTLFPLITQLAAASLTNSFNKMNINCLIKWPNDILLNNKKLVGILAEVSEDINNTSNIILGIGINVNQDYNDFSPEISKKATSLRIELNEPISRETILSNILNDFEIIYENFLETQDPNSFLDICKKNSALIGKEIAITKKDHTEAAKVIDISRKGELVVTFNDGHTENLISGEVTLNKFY
Put plainly: TLC of […]Bio-5′-AMP. The format is biochemical. The settings on record: 25 uM biotin, 5 uM ATP, 5.5 mM MgCl2, pH 8.0, room temperature; acceptor B. subtilis AccB-86.

The target in assay [1] is BirA′ (protein encoded by Clostridium acetobutylicum gene Ca 0212), purified (Clostridium acetobutylicum (strain ATCC 824)). The experiment in a line: SEC. (SEC sorts molecules by how far they enter the pores of the column.)

For the molecule `O=C(O)CCCC[C@@H]1SC[C@@H]2NC(=O)N[C@@H]21` [biotin], on BplA (Ca 0589), the “TLC of [32P]Bio-5′-AMP; AccB-86 native gel shift; MS/MS of product” value is given as “In reactions with BplA, formation of the Bio-5′-AMP intermediate was detected upon biotin addition”. One may read the stoichiometry N as a count of units in the complex or per binding partner. “BirA′ (protein encoded by Clostridium acetobutylicum gene Ca 0212), purified (natural protein)”: the stoichiometry N in assay [1] was 2.

For the origin of these results see PMC9048407 (Molecular microbiology, 2021).
